Results taken from KR20230047805A, “알기나제 유래 펩타이드를 포함하는 심혈관 질환 예방 또는 치료용 조성물” (강원대학교산학협력단, priority 2021, dated 2023).

Columns and labels:
p32 단백질 [1] = biological target: T1, p32 단백질 (Homo sapiens, UniProt Q07021); assay: Western blot of p32 protein level in peptide-treated HUVECs; format: cell-based; conditions: 12 h
T1 construct: 펩타이드를 처리한 HUVECs을 1X SDS sample buffer로 lysis한 뒤; endogenous in cells; host or cells: HUVECs
T1 sequence (Q07021 74-282): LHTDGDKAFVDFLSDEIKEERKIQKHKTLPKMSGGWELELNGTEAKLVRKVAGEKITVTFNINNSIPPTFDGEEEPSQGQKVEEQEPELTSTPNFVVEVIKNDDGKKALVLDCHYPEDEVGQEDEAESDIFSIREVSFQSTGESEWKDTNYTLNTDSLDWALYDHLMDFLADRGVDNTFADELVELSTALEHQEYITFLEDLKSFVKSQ

CaMKII = assay: Western blot of CaMKII phosphorylation in peptide-treated HUVECs; format: cell-based, human; conditions: peptide 10 μM, 12 h
eNOS = assay: Western blot of eNOS phosphorylation (Ser1177, Thr495) in peptide-treated HUVECs; format: cell-based, human; conditions: peptide 10 μM, 12 h
p32 단백질 [2] = biological target: T1, p32 단백질; assay: Mitochondrial fractionation and immunoblotting of p32 in HUVECs; format: cell-based; conditions: peptide 10 μM, 12 h, mitochondrial fraction
p32 단백질 [3] = biological target: T1, p32 단백질; assay: Co-immunoprecipitation: ubiquitination of p32 in HUVECs; format: cell-based; conditions: peptide 10 μM, 12 h, co-IP with p32 antibody
알기나제와 p32 단백질의 결합 = biological target: T2, 알기나제와 p32 단백질의 결합 (Homo sapiens, UniProt Q07021); assay: Co-immunoprecipitation: binding of arginase and p32 in HUVECs; format: cell-based; conditions: peptide 10 μM, 12 h, co-IP with p32 antibody
T2 construct: YDIQY 펩타이드를 처리한 HUVECs을 RIPA buffer를 이용하여 lysis하고; endogenous in cells; host or cells: HUVECs
T2 sequence (Q07021 74-282): T1 sequence (Q07021 74-282)

p32 단백질 [4] = biological target: T1, p32 단백질; assay: p32 protein level under proteasome inhibition (MG132) in HUVECs, Western blot; format: cell-based; conditions: peptide 10 μM, 12 h
ApoE-/-+HCD 생쥐 대동맥 [5] = assay: NO measurement (DAF-FM fluorescence) in aorta of atherosclerosis model mice after i.v. peptide; format: in vivo, mouse; conditions: 0.25 mM/kg i.v. every second day, 5 injections in 10 days
ApoE-/-+HCD 생쥐 대동맥 [6] = assay: ROS measurement (DHE fluorescence) in aorta of atherosclerosis model mice after i.v. peptide; format: in vivo, mouse; conditions: 0.25 mM/kg i.v. every second day, 5 injections in 10 days
ApoE-/-+HCD 생쥐 대동맥 절편 = assay: Vascular tension measurement of aortic segments of atherosclerosis model mice after i.v. peptide; format: in vivo, mouse
[7] = Tail-cuff blood pressure measurement (CODA) in wild-type mice after i.v. peptide; format: in vivo, mouse; conditions: WT mice, 0.25 mM/kg i.v. once daily, 4day

YDIQY: penta-peptide of SEQ ID NO: 1 designed from the arginase/p32 binding site; p32 inhibiting activity (printed: Tyr Asp Ile Gln Tyr)
p32 protein level (p32 단백질 [1]; peptide 10 μM, Western blot): 감소되었고 | cytoplasmic p32 protein level (p32 단백질 [1]; peptide 0.01, 0.1, 1, 10 μM): 농도 의존적으로 감소 | CaMKII phosphorylation (activity) (CaMKII): 증가하였고 | eNOS Ser1177 (activating site) phosphorylation (eNOS): 증가되었으며 | eNOS Thr495 (inactivating site) phosphorylation (eNOS): 감소되는 | mitochondrial p32 protein level (p32 단백질 [2]): 유의하게 감소 | p32 ubiquitination vs control (p32 단백질 [3]): 증가되어 | binding of p32 with arginase vs control (알기나제와 p32 단백질의 결합): 감소되어있는 | p32 protein level (p32 단백질 [4]; with proteasome inhibitor MG132 10 μM, 24 h): 감소되지 않는 | p32 protein level (p32 단백질 [4]; without MG132): 감소하였지만 | NO production in aorta (ApoE-/-+HCD 생쥐 대동맥 [5]): 정상 생쥐 수준만큼 회복 | ROS production in aorta (ApoE-/-+HCD 생쥐 대동맥 [6]): 정상 생쥐 수준만큼 회복 | Ach-dependent relaxation of aortic segments (ApoE-/-+HCD 생쥐 대동맥 절편; ApoE-/-+HCD mice, 0.25 mM/kg i.v. x5, Ach 10-9~10^-5 M): 정상 생쥐 수준만큼 회복되는 | PE-dependent contraction of aortic segments (ApoE-/-+HCD 생쥐 대동맥 절편; ApoE-/-+HCD mice, 0.25 mM/kg i.v. x5, PE 10-9~10^-5 M): 정상 생쥐 수준만큼 회복하는 | KCl contraction of aortic segments (ApoE-/-+HCD 생쥐 대동맥 절편; four groups compared, KCl 60 mM, 20 min): 차이가 없음 | SNP-dependent (endothelium-independent) relaxation of aortic segments (ApoE-/-+HCD 생쥐 대동맥 절편; four groups compared, SNP 10-10~10^-6 M): 차이가 없음 | 수축기 (systolic pressure) [7]: 유의하게 감소 | 이완기 (diastolic pressure) [7]: 유의하게 감소 | 평균 대동맥압 (mean aortic pressure) [7]: 유의하게 감소
